Test results taken from ChEMBL document CHEMBL2311509, “Synthesis and antiproliferative evaluation of 3-phenylquinolinylchalcone derivatives against non-small cell lung cancers and breast cancers” (Eur J Med Chem, 2013).

Tested on: MDA-MB-231
Experiment: Antiproliferative activity against human MDA-MB-231 cells after 72 hrs by XTT assay
Assay type: functional, cell-based
Settings: MDA-MB-231, 72 h
In the case of `COc1ccc(-c2cc3ccccc3nc2/C=C/C(=O)c2ccc(OC)c(OC)c2)cc1`, the IC50 is reported as 4.79 µM. Work on `COc1ccc(-c2cc3ccccc3nc2/C=C/C(=O)c2ccc[nH]2)cc1` yielded an IC50 of over 10 µM. `COc1ccc(-c2cc3ccccc3nc2/C=C/C(=O)c2ccc([N+](=O)[O-])cc2)cc1` showed an IC50 of 0.84 µM. Work on `COc1ccc(C(=O)/C=C/c2nc3ccccc3cc2-c2ccc(OC)cc2)cc1` yielded an IC50 of 7.54 µM. `COc1ccc(-c2cc3ccccc3nc2/C=C/C(=O)c2ccccc2)cc1` gave an IC50 of 0.86 µM. For `COc1ccc(-c2cc3ccccc3nc2/C=C/C(=O)c2cccs2)cc1`, the IC50 was 0.41 µM.

Tested on: SK-BR-3
Experiment: Antiproliferative activity against human SKBR3 cells after 72 hrs by XTT assay
Assay type: functional, cell-based
Settings: SK-BR-3, 72 h
For `COc1ccc(-c2cc3ccccc3nc2/C=C/C(=O)c2ccc(OC)c(OC)c2)cc1`, the IC50 was 3.26 µM. With `COc1ccc(-c2cc3ccccc3nc2/C=C/C(=O)c2ccc[nH]2)cc1` the IC50 was over 10 µM. For `COc1ccc(-c2cc3ccccc3nc2/C=C/C(=O)c2ccc([N+](=O)[O-])cc2)cc1`, the IC50 was 0.59 µM. `COc1ccc(C(=O)/C=C/c2nc3ccccc3cc2-c2ccc(OC)cc2)cc1` showed an IC50 of 9.28 µM. Compound `COc1ccc(-c2cc3ccccc3nc2/C=C/C(=O)c2ccccc2)cc1` has an IC50 of 0.7 µM. `COc1ccc(-c2cc3ccccc3nc2/C=C/C(=O)c2cccs2)cc1` showed an IC50 of 0.8 µM.

Tested on: not listed separately
Experiment: Antiproliferative activity against human H184B5F5/M10 cells after 72 hrs by XTT assay
Assay type: functional, cell-based
Settings: H184B5F5/M10, 72 h
`COc1ccc(-c2cc3ccccc3nc2/C=C/C(=O)c2ccc(OC)c(OC)c2)cc1` gave an IC50 of 7.24 µM. Work on `COc1ccc(-c2cc3ccccc3nc2/C=C/C(=O)c2ccc[nH]2)cc1` yielded an IC50 of over 10 µM. `COc1ccc(-c2cc3ccccc3nc2/C=C/C(=O)c2ccc([N+](=O)[O-])cc2)cc1` gave an IC50 of 6.1 µM. `COc1ccc(C(=O)/C=C/c2nc3ccccc3cc2-c2ccc(OC)cc2)cc1` gave an IC50 of over 10 µM. For `COc1ccc(-c2cc3ccccc3nc2/C=C/C(=O)c2ccccc2)cc1`, the IC50 was 8.56 µM. `COc1ccc(-c2cc3ccccc3nc2/C=C/C(=O)c2cccs2)cc1` gave an IC50 of 7.03 µM.

Tested on: A549
Experiment: Antiproliferative activity against human A549 cells after 72 hrs by XTT assay
Assay type: functional, cell-based
Settings: A549, 72 h
With `COc1ccc(-c2cc3ccccc3nc2/C=C/C(=O)c2ccc(OC)c(OC)c2)cc1` the IC50 was 8.86 µM. Work on `COc1ccc(-c2cc3ccccc3nc2/C=C/C(=O)c2ccc[nH]2)cc1` yielded an IC50 of over 10 µM. In the case of `COc1ccc(-c2cc3ccccc3nc2/C=C/C(=O)c2ccc([N+](=O)[O-])cc2)cc1`, the IC50 is reported as 6.31 µM. In the case of `COc1ccc(C(=O)/C=C/c2nc3ccccc3cc2-c2ccc(OC)cc2)cc1`, the IC50 is reported as 8.5 µM. With `COc1ccc(-c2cc3ccccc3nc2/C=C/C(=O)c2ccccc2)cc1` the IC50 was 7.41 µM. Compound `COc1ccc(-c2cc3ccccc3nc2/C=C/C(=O)c2cccs2)cc1` has an IC50 of 0.92 µM.

Tested on: MCF7
Experiment: Antiproliferative activity against human MCF7 cells after 72 hrs by XTT assay
Assay type: functional, cell-based
Settings: MCF7, 72 h
`COc1ccc(-c2cc3ccccc3nc2/C=C/C(=O)c2ccc(OC)c(OC)c2)cc1` showed an IC50 of 6.03 µM. `COc1ccc(-c2cc3ccccc3nc2/C=C/C(=O)c2ccc[nH]2)cc1` gave an IC50 of over 10 µM. `COc1ccc(-c2cc3ccccc3nc2/C=C/C(=O)c2ccc([N+](=O)[O-])cc2)cc1` showed an IC50 of 4.11 µM. Compound `COc1ccc(C(=O)/C=C/c2nc3ccccc3cc2-c2ccc(OC)cc2)cc1` has an IC50 of 7.38 µM. `COc1ccc(-c2cc3ccccc3nc2/C=C/C(=O)c2ccccc2)cc1` showed an IC50 of 4.04 µM. `COc1ccc(-c2cc3ccccc3nc2/C=C/C(=O)c2cccs2)cc1` showed an IC50 of 1.03 µM.

Tested on: not listed separately
Experiment: Antiproliferative activity against human H1299 cells after 72 hrs by XTT assay
Assay type: functional, cell-based
Settings: NCI-H1299, 72 h
With `COc1ccc(-c2cc3ccccc3nc2/C=C/C(=O)c2ccc(OC)c(OC)c2)cc1` the IC50 was 1.05 µM. Work on `COc1ccc(-c2cc3ccccc3nc2/C=C/C(=O)c2ccc[nH]2)cc1` yielded an IC50 of over 10 µM. With `COc1ccc(-c2cc3ccccc3nc2/C=C/C(=O)c2ccc([N+](=O)[O-])cc2)cc1` the IC50 was 0.77 µM. In the case of `COc1ccc(C(=O)/C=C/c2nc3ccccc3cc2-c2ccc(OC)cc2)cc1`, the IC50 is reported as 6.42 µM. Compound `COc1ccc(-c2cc3ccccc3nc2/C=C/C(=O)c2ccccc2)cc1` has an IC50 of 1.41 µM. `COc1ccc(-c2cc3ccccc3nc2/C=C/C(=O)c2cccs2)cc1` gave an IC50 of 0.72 µM.

Tested on: not listed separately
Experiment: Antiproliferative activity against human H460 cells after 72 hrs by XTT assay
Assay type: functional, cell-based
Settings: NCI-H460, 72 h
Compound `COc1ccc(-c2cc3ccccc3nc2/C=C/C(=O)c2ccc(OC)c(OC)c2)cc1` has an IC50 of 7.54 µM. Compound `COc1ccc(-c2cc3ccccc3nc2/C=C/C(=O)c2ccc[nH]2)cc1` has an IC50 of over 10 µM. Compound `COc1ccc(-c2cc3ccccc3nc2/C=C/C(=O)c2ccc([N+](=O)[O-])cc2)cc1` has an IC50 of 6.47 µM. With `COc1ccc(C(=O)/C=C/c2nc3ccccc3cc2-c2ccc(OC)cc2)cc1` the IC50 was over 10 µM. Work on `COc1ccc(-c2cc3ccccc3nc2/C=C/C(=O)c2ccccc2)cc1` yielded an IC50 of 6.67 µM. For `COc1ccc(-c2cc3ccccc3nc2/C=C/C(=O)c2cccs2)cc1`, the IC50 was 5.44 µM.
